Laboratory results published in US11154530B2, “Pharmaceutical composition for treating liver cancer, comprising tetraarsenic hexoxide crystalline polymorph” (CHEMAS CO., LTD., priority 2016, dated 2021).

Experiments:
[1] = In vivo efficacy test in mice transplanted with H22 cells; details: ICR mice with H22 cells
Experimental: (§1) Human liver cancer cell line H22 cells (purchased from the Shanghai Cell Bank of Chinese Academy of Sciences) were incubated in RPMI-1640 medium supplemented with 10% FBS, 100 U/ml penicillin, and 100 μg/ml streptomycin in an incubator under conditions of 37° C., 5% CO2, and 95% air. The medium was exchanged every three days.
(§2) The mice were allowed free access to food and water, and were bred in a 12-hr light/12-hr dark cycle.
(§3) Out of the 50 mice, 10 mice were classified as the normal group, and the remaining 40 animals were subcutaneously inoculated with H22 cells at 1×10^7 cells per mouse, and bred for 7 days. […] 5-Fluorouracil (5-FU), which is used as an anticancer drug, was treated for a positive control group.
(§4) After the administration of the drug for each group, cancer sizes were measured daily using a Vernier caliper, and cancer volumes were calculated using the equation V=0.5×ab^2 (a is the longest diameter of cancer and b is the shortest diameter of cancer). In addition, the inhibition of cancer volume according to the number of days of administration was calculated by the following equation. Percentage of inhibition of cancer growth=(1−(sample treatment group/cancer model group))×100

[2] = tested on: human liver cancer cell line H22 cells; assay: as above; details: from cancer volume vs cancer model group
Experimental: as §1, §2, §3, §4

[3] = tested on: human liver cancer cell line SMMC-7721 cells; assay: In vivo efficacy test in mice transplanted with SMMC-7721 cells; details: for Cancer weight: babl/c-nu mice with SMMC-7721 cells; for Percentage (%) of inhibition of cancer growth: from cancer weight vs cancer model group
Experimental: as §1, with “SMMC-7721” for “H22”, “50” for “100”
as §2
The twenty five mice were subcutaneously inoculated into the neck site with SMMC-7721 cells at 2×10^7 cells per mouse, and bred for 7 days. […] 5-Fluorouracil (5-FU), which is used as an anticancer drug, was treated for a positive control group.
Cancer tissues were isolated from the mice after seven days of administration of the drug for each group, and visually observed. Cancer weights were measured. In addition, the inhibition of cancer growth was calculated on the basis of the measured weights of the cancer tissues by using the following equation. Percentage of inhibition of cancer growth=(1−(sample treatment group/cancer model group))×100

[4] = tested on: human liver cancer cells SMMC-7721; assay: MTT cell proliferation assay, SMMC-7721 cells; assay type: cell-based
Experimental: (§5) Fetal bovine serum (FBS) and cell culture medium were prepared (Hyclone), and dimethyl sulfoxide (DMSO) and 3-(4,5-dimethyl-thiazol-2yl)-2,5-diphenyltetrazolium bromide (MTT, Amresco LLC, USC) were prepared.
(§6) As human cancer cell lines, human liver cancer cells SMMC-7721 and HCCLM3 were obtained from the Shanghai Cell Bank of Chinese Academy of Sciences. The SMMC-7721 cells were incubated in RPMI-1640 medium supplemented with 10% FBS, 50 U/ml penicillin, and 50 μg/ml streptomycin and the HCCLM3 cells were incubated in Dulbecco's modified Eagle's medium (DMEM) supplemented with 10% FBS, 100 U/ml penicillin, and 100 μg/ml streptomycin in a humidified incubator with 5% CO2 and 95% air. […]
(§7) The effects of Example 1 and Comparative Examples 1 to 3 on cell proliferation were assessed using MTT assay. […] All the crystals were completely dissolved by standing at room temperature for 15 minutes, and the absorbance was measured using a micro-plate reader at a wavelength of 570 nm (A570nm).
(§8) The absorbance value of the control group treated without the sample was calculated as 100, and the absorbance value of the treatment group treated with the sample, compared with that of the control group, was calibrated, and the percentage of inhibition of cell proliferation was calculated according to the following equation. […]
(§9) All data were expressed as mean±standard error of the mean (mean±SEM). […]

[5] = tested on: human liver cancer cells HCCLM3; assay: MTT cell proliferation assay, HCCLM3 cells; assay type: cell-based
Experimental: as §5, §6, §7, §8, §9

[6] = Positive control group, 20 mg/kg oral daily, 5 days
[7] = Positive control group, 20 mg/kg oral daily, 7 days
[8] = Positive control group, 20 mg/kg oral daily, 9 days
[9] = Positive control group, 20 mg/kg oral daily, 11 days
[10] = Positive control group, 20 mg/kg oral daily for 7 days
[11] = Test Group 1, 4.5 mg/kg oral daily, 5 days
[12] = Test Group 1, 4.5 mg/kg oral daily, 7 days
[13] = Test Group 1, 4.5 mg/kg oral daily, 9 days
[14] = Test Group 1, 4.5 mg/kg oral daily, 11 days
[15] = Test Group 2, 2.25 mg/kg oral daily, 5 days
[16] = Test Group 2, 2.25 mg/kg oral daily, 7 days
[17] = Test Group 2, 2.25 mg/kg oral daily, 9 days
[18] = Test Group 2, 2.25 mg/kg oral daily, 11 days
[19] = Test Group 1, 4.5 mg/kg oral daily for 7 days
[20] = Test Group 2, 2.25 mg/kg oral daily for 7 days
[21] = Test Group 3, 1.125 mg/kg oral daily for 7 days

O=c1[nH]cc(F)c(=O)[nH]1 [5-Fluorouracil, reference compound]
Cancer volume according to number of days of administration [1, 6]: 165.62 mm^3 | Cancer volume according to number of days of administration [1, 7]: 212.78 mm^3 | Cancer volume according to number of days of administration [1, 8]: 318.07 mm^3 | Cancer volume according to number of days of administration [1, 9]: 661.97 mm^3 | Percentage (%) of inhibition of cancer growth [2, 6]: 26.16% | Percentage (%) of inhibition of cancer growth [2, 7]: 46.73% | Percentage (%) of inhibition of cancer growth [2, 8]: 52.15% | Percentage (%) of inhibition of cancer growth [2, 9]: 63.48% | Cancer weight [3, 10]: 0.72 ± 0.27 g | Percentage (%) of inhibition of cancer growth [3, 10]: 32.5%

tetraarsenic hexoxide [Example 1]
Percentage of inhibition of SMMC-7721 cell proliferation compared with Comparative Example 1 ([4]; incubation for 48 hours and 72 hours, 0.625-80 μM, FIGS. 2A-B): higher | Percentage of inhibition of SMMC-7721 cell proliferation compared with Comparative Example 2 or 3 ([4]; mixtures of Example 1 and Comparative Example 1 at 4:1 or 1:1, FIGS. 2A-B): higher | Percentage of inhibition of HCCLM3 cell proliferation compared with Comparative Example 1 ([5]; incubation for 48 hours and 72 hours, 0.625-80 μM, FIGS. 3A-B): higher | Percentage of inhibition of HCCLM3 cell proliferation compared with Comparative Example 2 or 3 ([5]; mixtures of Example 1 and Comparative Example 1 at 4:1 or 1:1, FIGS. 3A-B): higher | Cancer volume according to number of days of administration [1, 11]: 168.09 mm^3 | Cancer volume according to number of days of administration [1, 12]: 238.22 mm^3 | Cancer volume according to number of days of administration [1, 13]: 388.85 mm^3 | Cancer volume according to number of days of administration [1, 14]: 880.55 mm^3 | Cancer volume according to number of days of administration [1, 15]: 216.75 mm^3 | Cancer volume according to number of days of administration [1, 16]: 302.66 mm^3 | Cancer volume according to number of days of administration [1, 17]: 388.56 mm^3 | Cancer volume according to number of days of administration [1, 18]: 987.61 mm^3 | Percentage (%) of inhibition of cancer growth [2, 11]: 25.06% | Percentage (%) of inhibition of cancer growth [2, 12]: 40.36% | Percentage (%) of inhibition of cancer growth [2, 13]: 41.50% | Percentage (%) of inhibition of cancer growth [2, 14]: 51.42% | Percentage (%) of inhibition of cancer growth [2, 15]: 3.36% | Percentage (%) of inhibition of cancer growth [2, 16]: 24.23% | Percentage (%) of inhibition of cancer growth [2, 17]: 41.54% | Percentage (%) of inhibition of cancer growth [2, 18]: 45.52% | Cancer weight [3, 19]: 0.65 ± 0.17 g | Percentage (%) of inhibition of cancer growth [3, 19]: 39.7% | Cancer weight [3, 20]: 0.70 ± 0.10 g | Percentage (%) of inhibition of cancer growth [3, 20]: 34.3% | Cancer weight [3, 21]: 0.77 ± 0.12 g | Percentage (%) of inhibition of cancer growth [3, 21]: 28.0% | Tumor tissue sizes (visual observation) ([3]; isolated cancer tissues after 7 days of oral administration, FIG. 6): reduced
